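Tested at 5 concentrations; 48 h exposure; 96-well plates; endpoints linearly interpolated, else capped at highest concentration. TGI marks complete inhibition of growth.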
What was measured:
Experiment in all cases: growth of human tumour cells (NCI), 48 h
NCI-H460 lung = tested on: NCI-H460 lung
HL-60(TB) leukemia = tested on: HL-60(TB) leukemia
LOX IMVI melanoma = tested on: LOX IMVI melanoma
RXF 393 renal = tested on: RXF 393 renal
COLO 205 colon = tested on: COLO 205 colon
SNB-75 CNS = tested on: SNB-75 CNS
A549 NSCLC = tested on: A549 NSCLC
SF-295 CNS = tested on: SF-295 CNS
MALME-3M melanoma = tested on: MALME-3M melanoma
SW-620 colon = tested on: SW-620 colon
UACC-62 melanoma = tested on: UACC-62 melanoma
ACHN renal = tested on: ACHN renal
SF-539 CNS = tested on: SF-539 CNS
M14 melanoma = tested on: M14 melanoma
M19-MEL melanoma = tested on: M19-MEL melanoma
UO-31 renal = tested on: UO-31 renal
NCI/ADR-RES ovarian = tested on: NCI/ADR-RES ovarian
HCT-15 colon = tested on: HCT-15 colon
MDA-N = tested on: MDA-N
OVCAR-5 ovarian = tested on: OVCAR-5 ovarian

Structure (SMILES) | TGI (NCI-H460 lung) [µM] | TGI (HL-60(TB) leukemia) [µM] | TGI (LOX IMVI melanoma) [µM] | TGI (RXF 393 renal) [µM] | TGI (COLO 205 colon) [µM] | TGI (SNB-75 CNS) [µM] | TGI (A549 NSCLC) [µM] | TGI (SF-295 CNS) [µM] | TGI (MALME-3M melanoma) [µM] | TGI (SW-620 colon) [µM] | TGI (UACC-62 melanoma) [µM] | TGI (ACHN renal) [µM] | TGI (SF-539 CNS) [µM] | TGI (M14 melanoma) [µM] | TGI (M19-MEL melanoma) [µM] | TGI (UO-31 renal) [µM] | TGI (NCI/ADR-RES ovarian) [µM] | TGI (HCT-15 colon) [µM] | TGI (MDA-N) [µM] | TGI (OVCAR-5 ovarian) [µM]
CC(=O)OC1CC2(C)OC(Cc3ccccc32)O1 (stereo not given) | > 100 | > 100 | > 100 | > 100 | > 100 | > 100 | > 100 | > 100 | > 100 | > 100 | > 100 | > 100 | > 100 | > 100 | > 100 | > 100 | – | – | – | –
Cc1[nH]n(C(=N)N)c(=O)c1CCO | > 100 | > 100 | > 100 | > 100 | > 100 | > 100 | > 100 | > 100 | > 100 | > 100 | > 100 | > 100 | > 100 | > 100 | – | > 100 | 8.93 | > 100 | > 100 | > 100
CN(C)CC1CCC/C(=C\c2ccc(OC(=O)/C=C/c3ccccc3)cc2)C1=O (stereo not given) | 21.9 | > 100 | 1.7 | 3.71 | 3.95 | 17 | 8.4 | 13.7 | 5.02 | 4.94 | 15.8 | 6.62 | 3.76 | 5.35 | – | 3.66 | 5.12 | 3.14 | 6.28 | 7.24
CC(=O)Oc1c2c(c(CC=C(C)C)c3c1C(=O)C1=C[C@@H]4CC5C(C)(C)OC(C/C=C(/C)C(=O)O)(C4=O)[C@@]15O3)OC(C)(CCC=C(C)C)C=C2 (stereo not given in full) | 1.97 | 10.6 | 0.247 | 0.336 | 0.421 | 1.39 | 0.999 | 1.67 | 0.558 | 0.241 | 0.86 | 0.279 | 0.252 | 0.814 | – | 0.526 | 2.7 | 0.978 | 0.536 | 1.16
CCOC(=O)NC(C(=O)OCC)(N1CCN(c2cc3c(cc2F)c(=O)c(C(=O)O)cn3CC)CC1)C(F)(F)F (stereo not given) | > 100 | > 100 | > 100 | > 100 | > 100 | > 100 | > 100 | > 100 | > 100 | > 100 | > 100 | > 100 | > 100 | > 100 | – | > 100 | > 100 | > 100 | > 100 | > 100
Cc1cc2oc(-c3ccccc3)c(C)c(=O)c2c2c1OC(C)(C)S2 | > 100 | 38.4 | > 100 | > 100 | > 100 | > 100 | > 100 | > 100 | > 100 | > 100 | > 100 | > 100 | > 100 | > 100 | > 100 | > 100 | – | > 100 | – | > 100

Reference: PubChem BioAssay (NCI)
